Experiments:
SARS-CoV-2 nsp13 [1] = molecular target: T1, SARS-CoV-2 nsp13 (Severe acute respiratory syndrome coronavirus 2, UniProt P0DTD1); experiment: EMSA of nsp13 binding to dsDNA substrate; settings: 2 μM nsp13, 0, 2, 10 and 20 μM compound, 2 h, 100 nM DNA
Procedure: We preincubated 2 μM nsp13 with different concentrations (0, 2, 10 and 20 μM) of Au(PEt3)Cl for 2 h at room temperature, then incubated with 100 nM DNA substrate to form the protein-dsDNA complex.
EMSA for investigating the binding between nsp13 and DNA substrates was performed as previously reported. Briefly, 2 μM nsp13 was incubated with Au(PEt3)Cl in a dose-dependent manner in 20 μL binding buffer (20 mM Tris pH 7.4, 20 mM NaCl, 1 mM TCEP, 5 mM MgCl2) for 2 h at 25 °C. Then, incubated per sample at 37 °C with 100 nM dsDNA. After 15 min incubation, the reaction was stopped by 4 μL loading buffer (50% glycerol, 0.02% bromophenol blue). The reaction mixture was electrophoresed in 8% native-polyacrylamide gels at 150 V for 1 h. The gel was stained by GelRed (Sigma Aldrich) for 10 min and images were captured by iBright™ CL750 Imaging System (Thermo Fisher Scientific).
Fig. S3 EMSA image of the binding between DNA substrate and nsp13 in the presence of increasing
amounts of Au(I)- based compound (as Au(PEt3)Cl).
(1 picture or pasted object on this page, not shown here)

SARS-CoV-2 nsp13 [2] = molecular target: T1, SARS-CoV-2 nsp13; experiment: BODIPY FL ATP-γ-S fluorescence assay (ATP binding); settings: for fluorescence intensity of BODIPY FL ATP-γ-S with nsp13: 1 μM compound, 10 min pre-incubation, 10 nM BODIPY FL ATP-γ-S
[3] = molecular target: T2, SARS-CoV-2 nsp13 (helicase) (Severe acute respiratory syndrome coronavirus 2, UniProt P0DTD1); experiment: ATPase assay (phosphate release); type: biochemical; settings: for IC50: 20 nM nsp13, n = 3, read-out: IC50 (± SD) ATPase
SARS-CoV-2 nsp13 [4] = molecular target: T1, SARS-CoV-2 nsp13; experiment: Metal displacement analysis (equilibrium dialysis, ICP-MS), nsp13; type: binding
Procedure: Nsp13 also consists of 3 zinc finger sites at its N-terminal zinc-binding domain. Therefore, we first investigated whether Au(I) could interact with zinc fingers in nsp13 by equilibrium dialysis.
Au(I) binding and Zn(II) release on nsp10 and nsp14 were determined by Inductively Coupled Plasma Mass Spectrometry (ICP-MS) on Agilent 7700 × ICP-MS (Agilent Technologies). […] Dialysis tubes loaded with 100 μL Zn-bound proteins (5 μM for nsp14 and nsp13 and 20 μM for nsp10) or protein buffer were placed into 50 mL dialysis buffer in the presence of different concentrations of Au(I) compounds (as Au(PEt3)Cl) with mild shaking at 18 °C overnight. The protein concentration was measured by bicinchoninic acid (BCA) assay, and the metal concentration of solution both inside and outside the dialysis tubes was determined by ICP-MS.

[5] = molecular target: T2, SARS-CoV-2 nsp13 (helicase); experiment: FRET DNA duplex unwinding assay; type: biochemical; settings: for IC50: 20 nM nsp13, n = 3, read-out: IC50 (± SD) DNA unwinding
[6] = system: SARS-CoV-2 variants Omicron BA.5.2 and XBB in VeroE6-TMPRSS2 cells; type: cell-based

Row | Compound | fluorescence intensity of BODIPY FL ATP-γ-S with nsp13 (SARS-CoV-2 nsp13 [2]) | IC50 [3] [nM] | inhibition of ATPase activity ([3]; 50 mol equiv of compound) | IC50 [5] [nM] | inhibition of DNA unwinding activity ([5]; 50 mol equiv of compound) | also measured
1 | CCP(CC)CC.[Au+].[Cl-] [Au(PEt3)Cl, chloro(triethylphosphine)gold(I)] | decreased | 400 ± 90 | more than 50% | 330 ± 40 | more than 50% | effect on binding of nsp13 to dsDNA (SARS-CoV-2 nsp13 [1]): did not disrupt; fluorescence intensity of BODIPY FL ATP-γ-S with nsp13, dose dependence (SARS-CoV-2 nsp13 [2]; 0.1, 0.2, 0.5 and 1 μM): decreased in a dose-dependent manner; Au(I) bound to nsp13 (SARS-CoV-2 nsp13 [4]; equilibrium dialysis, ICP-MS): ca. 2.97 ± 0.20 mol equiv; Zn(II) release from nsp13 (SARS-CoV-2 nsp13 [4]; equilibrium dialysis, ICP-MS): ca. 2.88 ± 0.18 mol equiv; maximal binding capacity (Bmax), nsp13 (SARS-CoV-2 nsp13 [4]; nonlinear fit to specific binding plot): 3.33 ± 0.11; Kd (SARS-CoV-2 nsp13 [4]; nonlinear fit to specific binding plot, read-out: dissociation constant (Kd), nsp13): 2290 ± 220 nM
2 | CC[PH](CC)(CC)[Au][S]CC(NC(=O)CCC(N)C(=O)O)C(=O)NCC(=O)O [Au-GSH, ((R)-2-((S)-4-amino-4-carboxybutanamido)-3-((carboxymethyl)amino)-3-oxopropyl)thiolate)-(triethyl-phosphine)-gold(I)] |  |  |  |  |  | ATPase enzymatic activity remaining ([3]; 50 mol equiv of compound): 51.33%; DNA unwinding enzymatic activity remaining ([5]; 50 mol equiv of compound): 41.67%
3 | [Cl][Au] [AuCl, gold(I) chloride] | decreased | 200 ± 10 | more than 50% | 200 ± 30 | more than 50% | 
4 | O=S(=O)([O-])[S-].O=S(=O)([O-])[S-].[Au+].[Na+].[Na+].[Na+] [Na3Au(S2O3)2, gold(I) sodium thiosulfate] | decreased | 250 ± 80 | more than 50% | 380 ± 50 | more than 50% | 
5 | CC(=O)OC[C@H]1O[C@@H]([S-])[C@H](OC(C)=O)[C@@H](OC(C)=O)[C@@H]1OC(C)=O.CCP(CC)CC.[Au+] [auranofin] |  |  |  |  |  | maximum reduction of viral load in the cell culture supernatant [6]: 4 − 6 log10 units
6 | (1-(adamantan-1-yl)thiourea)-(triethylphosphine)-gold(I) [Au-amantadine] | decreased | 1150 ± 230 |  | 720 ± 130 |  | 

From PMC12316777
